According to PMC7062782, “A progesterone biosensor derived from microbial screening” (Nature Communications, 2020):

T1: SRTF1 (Pimelobacter simplex, UniProt A0A0A1DUF2)
T1 construct: gene KR76_27130; assembled on quantum dots for FRET
T1 sequence (A0A0A1DUF2 1-189): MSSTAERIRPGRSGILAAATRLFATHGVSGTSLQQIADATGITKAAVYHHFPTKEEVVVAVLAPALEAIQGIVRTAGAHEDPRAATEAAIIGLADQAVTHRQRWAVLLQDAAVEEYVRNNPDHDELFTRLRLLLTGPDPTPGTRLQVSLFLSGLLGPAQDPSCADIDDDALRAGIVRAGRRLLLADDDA

T2: SRTF1 (Pimelobacter simplex ATCC 6946, UniProt A0A0A1DUF2 1-189)
T2 sequence: T1 sequence (A0A0A1DUF2 1-189)

B1: BLI-SCRM (dsDNA)
DNA 1: AAATTGTCCCGGGCCTTTCTCCGCGCGTCTGGTAACCCTTAGGATTACTC
DNA 2: GAGTAATCCTAAGGGTTACCAGACGCGCGGAGAAAGGCCCGGGACAATTT

Tests used:
SRTF1 [1] = target: T1, SRTF1; assay: QD-TF-FRET, ligand-induced release of Cy5-labelled operator DNA; format: biochemical; conditions: sensor 3: QD/TF/DNA ratio 1:1:18, operator with 2 mutated bases in one half of palindrome, HEPES, RT; allosteric
SRTF1 [2] = target: T2, SRTF1; assay: BLI; no steroid; BLI: 28 mM Tris-HCl pH 8.0, 5 mM MgCl (so in the source), 4.25% glycerol, 25 mM NaCl, 1.67 mg/mL BSA, 30 C; QD-FRET: 1x HEPES with binding buffer (5x: 25 mM MgCl2, 25% glycerol, 250 mg/L salmon sperm DNA, 0.1 M Tris-HCl), RT; conditions: protein: recombinant; tags: C-terminal 6xHis; chain copies: 2; label: 5' biotin on strand 1; blunt

| Molecule | IC50 (SRTF1 [1]) | binding result (SRTF1 [2]) |
| --- | --- | --- |
| C[C@]12CCC(=O)C=C1CC[C@@H]1[C@@H]2[C@@H](O)C[C@]2(C=O)[C@@H](C(=O)CO)CC[C@@H]12 [ALD, aldosterone] | 312 ± 42 nM | – |
| B1 | – | no binding |
